From US7897588B2, “Agents and methods for enhancing bone formation” (The Regents of the University of California, priority 2003, dated 2011)

Legend:
[1] = tested on: M2-10B4 mouse marrow stromal cell line; test: Alkaline phosphatase (ALP) activity assay in M2 cells; format: cell-based; conditions: for inhibition of oxysterol-induced alkaline phosphatase activity: 22R+20S, SC-560 10 μM, ACA 25 μM, AACOCF3 20 μM, PD98059 20 μM
Protocol: (§1) Cells: M2-10B4 mouse marrow stromal cell line obtained from American Type Culture Collection (ATCC, Rockville, Md., U.S.A.) was derived from bone marrow stromal cells of a (C57BL/6J×C3H/HeJ) F1 mouse, and support human and murine myelopoiesis in long-term cultures (as per ATCC) and have the ability to differentiate into osteoblastic and adipocytic cells. Unless specified, these cells were cultured in RPMI 1640 containing 10% heat-inactivated FBS, and supplemented with 1 mM sodium pyruvate, 100 U/ml penicillin, and 100 […] (all from Irvine Scientific).
Alkaline phosphatase activity assay: Colorimetric alkaline phosphatase (ALP) activity assay on whole cell extracts was performed as previously described.
Test 1: M2 cells at confluence were treated with control vehicle (C), or 10 μM oxysterols, in an osteogenic medium consisting of RPMI 1640 to which 10% fetal bovine serum (FBS), 50 μg/ml ascorbate and 3 mM beta-glycerophosphate (βGP) were added. After 3 days of incubation, alkaline phosphatase (ALP) activity was determined in cell homogenates by a colorimetric assay. […] FIG. 3A is a bar graph depicting the effect of various oxysterols on alkaline phosphatase activity in M2 cells.
M2 cells at confluence were treated in osteogenic medium with control vehicle (C) or a combination of 22R and 20S oxysterols, at the indicated concentrations. ALP activity was measured after 3 days as described above. […] FIG. 3B is a bar graph depicting the effect of a combination of oxysterols at various doses on alkaline phosphatase activity in M2 cells.
Test 2: M2 cells were grown in RPMI medium containing 10% fetal bovine serum (FBS). At confluence, the cells were treated in RPMI containing 5% FBS plus ascorbate at 50 μg/ml and β-glycerophosphate at 3 mM to induce osteoblastic differentiation. Adipogenic differentiation was induced by treating the cells in growth medium plus 10 ˜M troglitazone. A vehicle (C) or oxysterol treatment was applied to cells in a variety of doses (in μM): 20S-Hydroxycholesterol, 25-Hydroxycholesterol, 22R-Hydroxycholesterol; 22S-Hydroxycholesterol; 7-ketocholesterol. Cells were always treated at 90% confluence. After 4 days, alkaline phosphatase activity was determined in whole cell lysates and normalized to protein. Alternatively, MSC cultures were prepared and treated with oxysterols as described above. Cells were treated at 90% confluence with the combination of 22R-Hydroxycholesterol and 20S-Hydroxycholesterol, each at 5 uM, for 4 to 96 hours. The oxysterols where removed and fresh media without oxysterols was added for a total duration of 96 hours. Alkaline phosphatase activity was measured in whole cell extracts and normalized to protein.
M2 cells were treated at 90% confluence with vehicle (C), or oxysterols 20S-Hydroxycholesterol or 22S-Hydroxycholesterol at (0.5 μM) or (1 μM), in the absence or presence of cytochrome P450 inhibitor (SKF525A 10 μM (+)). MSC cultures were also treated at 90% confluence with vehicle (C), or 20S-Hydroxycholesterol (2 μM), in the absence or presence of cytochrome P450 […] (Benzylimidazole 50 μM) or SKF525A (10 μM). After 4 days, alkaline phosphatase activity was measured in whole cell extracts and normalized to protein.
Next, a combination of 22R and 20S oxysterols (RS, 2.5 μM each) were added in the presence or absence of SC as indicated. After 3 days, ALP activity was measured as described earlier. […] (B) M2 cells were treated as described in (A) and after 10 days matrix mineralization in cultures was quantified by a ^45Ca incorporation assay as described earlier.

M2 cells [2] = test: Adipogenesis of troglitazone-treated M2 cells (oil Red O staining, adipocyte count); format: cell-based, mouse; conditions: M2 cells treated with Tro 10 μM, oxysterols 10 μM, 10 days
Protocol: (§2) Von Kossa and oil red O staining—Matrix mineralization in cell monolayers was detected by silver nitrate staining as previously described. Oil red O staining for detection of adipocytes was performed as previously described.
Test 1: M2 cells at 90% confluence were treated with vehicle (C), PPAR-γ activator, troglitazone 10 uM (Tro), alone or in combination with 10 μM oxysterols 20S-, 22R-, or 25S-hydroxycholesterol. After 8 days, adipocytes were identified by oil Red 0 staining and quantified by counting under a phase contrast microscope. FIG. 6A is a bar graph depicting the effect of oxysterols on reducing adipogenesis of MSC.
Test 2: (A) M2 cells at confluence were treated in RPMI containing 10% FBS with control vehicle or 10 μM troglitazone (Tro) in the absence or presence of 10 μM 20S or 22S oxysterols. After 10 days, adipocytes were visualized by oil Red O staining and quantified by light microscopy, shown in (B). Data from a representative of four experiments are shown, reported as the mean SD of quadruplicate determinations (p<0.001 for Tro vs. Tro+20S and Tro+22S). (C) M2 cells were treated at confluence with 10 μM Tro, alone or in combination with 10 μM 20S oxysterol. After 10 days, total RNA was isolated and analyzed for lipoprotein lipase (LPL), adipocyte P2 gene (aP2) or 18S rRNA expression by Northern blotting as described (Ref). Data from densitometric analysis of the Northern blot is shown in (D) as the average of duplicate samples, normalized to 18S rRNA.

[3] = tested on: M2-10B4 mouse marrow stromal cell line; test: Matrix mineralization in M2 cells (von Kossa staining, 45Ca incorporation assay); format: cell-based; conditions: 22R+20S, 10 days, SC-560 10 μM, ACA 25 μM, AACOCF3 20 μM, PD98059 20 μM
Protocol: as §1, §2
^45Ca incorporation assay—Matrix mineralization in cell monolayers was quantified using the ^45Ca incorporation assay as previously described.
M2 cells at confluence were treated in osteogenic medium with control vehicle or 5 μM oxysterols, alone or in combination as indicated. After 14 days, mineralization was identified by a von Kossa staining, which appears black. FIG. 3C is a depiction of von Kossa staining of M2 cells exposed to various conditions.
M2 cells were treated with control vehicle (C) or a combination of 22R and 20S oxysterols at increasing concentrations. After 14 days, matrix mineralization in cultures was quantified using a ^45Ca incorporation assay. […] FIG. 3D is a bar graph depicting the effect of a combination of oxysterols at various doses on calcium incorporation in M2 cells.
(§3) Next, a combination of 22R and 20S oxysterols (RS, 2.5 μM each) were added in the presence or absence of SC as indicated. After 3 days, ALP activity was measured as described earlier. […] (B) M2 cells were treated as described in (A) and after 10 days matrix mineralization in cultures was quantified by a ^45Ca incorporation assay as described earlier. Results from a representative of three experiments are shown, reported as the mean±SD of quadruplicate determinations, normalized to protein concentration. (C) M2 cells were pretreated with 20 μM SC for 4 hours, followed by the addition of RS in the presence or absence of SC as described above. After 8 days, total RNA was isolated and analyzed for osteocalcin (Osc) and 18S rRNA expression by Northern blotting as previously described. Data from densitometric analysis of the Northern blot is shown in (D) as the average of duplicate samples, normalized to 18S rRNA. (E) M2 cells at confluence were pretreated for 2 hours with control vehicle (C), or PLA2 inhibitors ACA (25 μM) and AACOCF3 (AAC, 20 μM), in osteogenic medium. Next, a combination of 22R and 20S oxysterols (RS, 2.5 μM) was added in the presence or absence of the inhibitors as indicated. After 3 days, ALP activity was measured as previously described. Data from a representative of three experiments are shown, reported as the mean±SD of quadruplicate determinations, normalized to protein concentration (p<0.01 for RS vs. RS+ACA and RS+AAC). (F) M2 cells were treated as described in (E). After 10 days, matrix minerliazation in cultures was quantified using a ^45Ca incorporation assay as previously described. Results from a representative of three experiments are shown, reported as the mean of quadruplicate determinations±SD, normalized to protein concentration (p<0.01 for RS vs. RS+ACA and RS+AAC).
(A) M2 cells at confluence were pretreated for four hours with RPMI containing 1% FBS, followed by treatment with control vehicle or 5 μM 20S oxysterol for 1, 4, or 8 hours. Next total cell extracts were prepared and analyzed for levels of native or phosphorylated ERK (pERK) using specific antibodies as previously described.

marrow stromal cells = test: Osteogenic activity of marrow stromal cells (alkaline phosphatase, mineral formation), overall; format: cell-based, mouse; conditions: M2 cells; SC-560 at 1-20 μM; NS-398 at 20 μM
Protocol: as §3, with “Data from a representative of three experiments are shown, reported as the mean±SD of quadruplicate determinations, normalized to protein concentration (p<0.01 for RS vs. RS+ACA and RS+AAC). (F) M2 cells were treated as described in (E).” left out, “Results from a representative of three experiments are shown, reported as the mean of quadruplicate determinations±SD, normalized to protein concentration (p<0.01 for RS vs. RS+ACA and RS+AAC).” left out

M2 cells [4] = test: Toxicity of COX inhibitors in M2 cell cultures; format: cell-based, mouse

`CC(C)CCC[C@@H](C)[C@H]1CC[C@H]2[C@@H]3C(=O)C=C4C[C@@H](O)CC[C@]4(C)[C@H]3CC[C@]12C` [7K, 7-ketocholesterol, reference compound] was tested, and the “induction of alkaline phosphatase activity” value ([1]; osteogenic medium, 10 μM oxysterols, 3 days) was “did not induce” and the inhibition of adipogenesis (M2 cells [2]) was “unable to inhibit”.
With `CCCCC/C=C\C/C=C\C/C=C\C/C=C\CCCC(=O)C(F)(F)F` [AACOCF3] the “inhibition of oxysterol-induced alkaline phosphatase activity” value [1] was “inhibited” and the “inhibition of oxysterol-induced mineralization” value [3] was “inhibited”.
For `CCCCCc1ccc(/C=C/C(=O)Nc2ccccc2C(=O)O)cc1` [ACA], the “inhibition of oxysterol-induced alkaline phosphatase activity” value [1] was “inhibited” and the “inhibition of oxysterol-induced mineralization” value [3] was “inhibited”.
With `CS(=O)(=O)Nc1ccc([N+](=O)[O-])cc1OC1CCCCC1` [NS-398] the “inhibition of the osteogenic effects of oxysterol combinations” value (marrow stromal cells) was “negligible inhibitory effects” and the highest non-toxic dose (M2 cells [4]) was 20 µM.
For `COc1cccc(-c2cc(=O)c3ccccc3o2)c1N` [PD98059], the “inhibition of oxysterol-induced mineralization” value [3] was “inhibited”.
In the case of `CCCCC[C@H](O)/C=C/[C@H]1[C@H](O)CC(=O)[C@@H]1C/C=C\CCCC(=O)O` [PGE2, prostaglandin E2], the “reversal of the effect of the COX-1 inhibitor on oxysterol-induced alkaline phosphatase activity” value ([1]; 1 μM PGE2 (data not shown)) is reported as “reversed”.
`CCCC(C(=O)OCCN(CC)CC)(c1ccccc1)c1ccccc1.Cl` [SKF525A] was tested, and the “effect on the osteogenic effects of the oxysterols (alkaline phosphatase activity)” value ([1]; 20S or 22S 0.5 or 1 μM, SKF525A 10 μM, 4 days) was “potentiated”.
In the case of `CCCCC/C=C\C/C=C\C/C=C\C/C=C\CCCC(=O)O` [arachidonic acid], the “reversal of the effect of the PLA2 inhibitors on oxysterol-induced alkaline phosphatase activity” value ([1]; 25 μM arachidonic acid (data not shown)) is reported as “reversed”.
